Source: patent US20040106545A1, “Compounds and methods for modulating cell adhesion” (priority 1996, published 2004)
Read-outs that look alike come from different tables or passages of the source. Positions of bridges follow the written chain, without caps; N, C: chain ends. Residues, ends and D or L forms follow the SMILES beside them.

Assays:
[1] = biological target: T1, chick N-cadherin (Gallus gallus, UniProt P10288); assay: Neurite outgrowth of rat cerebellar neurons on N-cadherin expressing 3T3 monolayers (Example 15); assay type: cell-based; details: for inhibitory activity on N-cadherin dependent neurite outgrowth, structure/activity statements: Tables 8 and 9
T1 construct: expressed in transfected cells; host or cells: 3T3 fibroblasts (monolayer); rat post-natal day 2-3 cerebellar neurons plated on top
T1 sequence (P10288 165-912): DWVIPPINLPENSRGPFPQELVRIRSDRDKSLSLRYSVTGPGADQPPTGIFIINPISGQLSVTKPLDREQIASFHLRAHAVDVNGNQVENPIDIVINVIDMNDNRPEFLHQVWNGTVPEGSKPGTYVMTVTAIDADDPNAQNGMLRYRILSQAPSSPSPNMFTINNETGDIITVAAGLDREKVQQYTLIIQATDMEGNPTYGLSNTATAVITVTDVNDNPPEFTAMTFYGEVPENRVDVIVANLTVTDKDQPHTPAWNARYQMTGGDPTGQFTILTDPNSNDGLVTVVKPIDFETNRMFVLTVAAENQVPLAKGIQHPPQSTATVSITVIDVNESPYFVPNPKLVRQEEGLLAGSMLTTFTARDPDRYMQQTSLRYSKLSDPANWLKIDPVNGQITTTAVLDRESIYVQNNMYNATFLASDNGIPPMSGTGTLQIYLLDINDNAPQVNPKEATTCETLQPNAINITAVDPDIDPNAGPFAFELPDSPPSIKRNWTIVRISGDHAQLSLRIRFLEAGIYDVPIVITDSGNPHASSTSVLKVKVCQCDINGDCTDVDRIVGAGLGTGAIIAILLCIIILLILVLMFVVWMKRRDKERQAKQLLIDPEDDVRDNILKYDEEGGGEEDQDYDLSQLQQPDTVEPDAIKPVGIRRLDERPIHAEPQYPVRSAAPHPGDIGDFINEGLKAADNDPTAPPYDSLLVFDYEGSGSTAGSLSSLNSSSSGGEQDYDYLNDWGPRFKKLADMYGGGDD
Procedure: Cell culture and neurite outgrowth assays. Co-cultures of cerebellar neurons on monolayers of control 3T3 cells and monolayers of transfected 3T3 cells that express physiological levels of chick N-cadherin or human L1 were established as previously described (Williams et al., Neuron 13:583-594, 1994). In brief, 80,000 3T3 cells (control and transfected) were plated into individual chambers of an eight-chamber tissue culture slide coated with polylysine and fibronectin and cultured in DMEM/10% FCS. After 24 hours, when confluent monolayers had formed, the medium was removed and 3000 cerebellar neurons isolated from post-natal day 2-3 rats were plated into each well in SATO media (Doherty et al., Nature 343:464-466, 1990) supplemented with 2% FCS. All of the test peptides were added immediately before the neurons as a 2× stock prepared in SATO/2% FCS. The co-cultures were maintained for 16-18 hours, at which time they were fixed and immunostained for GAP-43 which is present only in the neurons and delineates the neuritic processes. The mean length of the longest neurite per cell was measured for 150-200 neurons sampled in replicate cultures as previously described (Williams et al., Neuron 13:583-594, 1994). […] Dose-response curves were evaluated and the EC50 values determined.

[2] = test system: Madin Darby canine kidney (MDCK) cells; assay type: cell-based; details: 18 h
[3] = test system: HMVEC; assay type: cell-based, human; details: 3 h
Procedure: (§1) N—Ac-CHAVC-NH2 (SEQ ID NO:10) and the control peptide N—Ac-CHGVC-NH2 (SEQ ID NO:11) were evaluated for possible cytotoxic effects on human microvascular endothelial (HMVEC; Clonetics), human umbilical vein endothelial (HUVEC; ATCC #CRL-1730), IAFp2 (human fibroblast cell line; Institute Armand-Frapier, Montreal, Quebec), WI-38 (human fibroblast cell line; ATCC #CCL-75), MDA-MB231 (human breast cancer cell line; ATCC #HTB-26), and PC-3 (human prostate cancer cell line; ATCC #CRL-1435) cells utilizing the MTT assay (Plumb et al., Cancer Res. 49:4435-4440, 1989). Neither of the peptides was cytotoxic at concentrations up to and including 100 μM. Similarly, neither of the peptides was capable of inhibiting the proliferation of the above cell lines at concentrations up to 100 μM, as judged by ^3H-thymidine incorporation assays.

[4] = test system: HUVEC; assay type: cell-based, human; details: 3 h
Procedure: as §1

[5] = test system: IAFp2; assay type: cell-based, human; details: 3 h
Procedure: as §1

[6] = test system: MDA-MB231; assay type: cell-based, human; details: 3 h
Procedure: as §1

[7] = test system: PC-3; assay type: cell-based, human; details: 3 h
Procedure: as §1

[8] = test system: WI-38; assay type: cell-based, human; details: 3 h
Procedure: as §1

[9] = test system: MDA-MB231; assay: Cytotoxicity, MTT assay, MDA-MB231; assay type: cell-based, human
Procedure: as §1

[10] = test system: PC-3; assay: Cytotoxicity, MTT assay, PC-3; assay type: cell-based, human
Procedure: as §1

[11] = biological target: T2, N-cadherin (Gallus gallus, UniProt P10288); assay: Neurite outgrowth inhibition, rat neurons (Example 21); assay type: cell-based; details: read-out: % Inhibition of neurite outgrowth; 250 μg/mL
T2 construct: expressed in transfected cells; host or cells: 3T3 fibroblasts (monolayer)
T2 sequence (P10288 165-912): T1 sequence (P10288 165-912)

Row | Structure (SMILES) | inhibition at 250 µg/mL ([1]; 250 μg/mL, 16-18 hours, read-out: % Inhibition of N-Cadherin Dependent Neurite Outgrowth) | EC50 [2] | IC50 [3] | IC50 [4] | IC50 [5] | IC50 [6] | IC50 [7] | IC50 [8] | IC50 [9] | IC50 [10] | inhibitory activity on N-cadherin dependent neurite outgrowth, structure/activity statements ([1]; listed as H-CAHAVDIC-NH2) | inhibitory activity on N-cadherin dependent neurite outgrowth, structure/activity statements ([1]; listed as compound 15) | inhibition at 250 µg/mL [11]
1 | CC(=O)N[C@H]1CSSC[C@@H](C(=O)N[C@@H](CC(=O)O)C(N)=O)NC(=O)[C@H](C(C)C)NC(=O)[C@H](C)NC(=O)[C@H](Cc2c[nH]cn2)NC1=O [N—Ac—CHAVCD—NH2] (Ac-CHAVCD-NH2; disulfide 1-5) | 3.3 ± 10% | 470 µM | – | – | – | – | – | – | – | – | – | – | –
2 | CC(=O)N[C@H]1CSSC[C@@H](C(N)=O)NC(=O)[C@H](C(C)C)NC(=O)[C@H](C)NC(=O)[C@H](Cc2c[nH]cn2)NC(=O)[C@H](CO)NC(=O)[C@H](Cc2ccccc2)NC1=O [N—Ac—CFSHAVC—NH2] (Ac-CFSHAVC-NH2; disulfide 1-7) | – | 22 µM | – | – | – | – | – | – | – | – | – | – | –
3 | CC[C@H](C)[C@@H]1NC(=O)[C@H](CC(=O)O)NC(=O)[C@H](C(C)C)NC(=O)[C@H](C)NC(=O)[C@H](Cc2c[nH]cn2)NC(=O)[C@H](C)NC(=O)[C@@H](N)CSSC[C@@H](C(N)=O)NC1=O (H-CAHAVDIC-NH2; disulfide 1-8) | – | – | > 100 µM | > 100 µM | > 100 µM | > 100 µM | > 100 µM | > 100 µM | > 100 µM | > 100 µM | total loss of activity | lost activity | 0%
4 | CC(=O)N[C@H]1CSSC[C@@H](C(N)=O)NC(=O)[C@H](CO)NC(=O)[C@H](C(C)C)NC(=O)CNC(=O)[C@H](Cc2c[nH]cn2)NC1=O [N—Ac—CHGVSC—NH2] (Ac-CHGVSC-NH2; disulfide 1-6) | – | – | > 100 µM | 42 µM | > 100 µM | > 100 µM | > 100 µM | > 100 µM | > 100 µM | > 100 µM | – | – | 0%
5 | CC(C)[C@@H]1NC(=O)[C@H](C)NC(=O)[C@H](Cc2c[nH]cn2)NC(=O)[C@H](C)NC(=O)[C@@H](N)CSSC[C@@H](C(N)=O)NC(=O)[C@H](CC(=O)O)NC1=O [H—CAHAVDC—NH2, H-Cys-Ala-His-Ala-Val-Asp-Cys-NH2] (H-CAHAVDC-NH2; disulfide 1-7) | – | – | > 100 µM | > 100 µM | > 100 µM | > 100 µM | > 100 µM | > 100 µM | > 100 µM | > 100 µM | – | – | 0%
6 | CC(C)[C@@H]1NC(=O)CNC(=O)[C@H](Cc2c[nH]cn2)NC(=O)[C@H](C)NC(=O)[C@@H](N)CSSC[C@@H](C(N)=O)NC(=O)[C@H](CC(=O)O)NC1=O [H—CAHGVDC—NH2] (H-CAHGVDC-NH2; disulfide 1-7) | – | – | > 100 µM | > 100 µM | > 100 µM | > 100 µM | > 100 µM | > 100 µM | > 100 µM | > 100 µM | – | – | 0%
